From patent US7262185B2, “Benzazepine derivative, process for producing the same, and use” (Takeda Chemical Industries Ltd., priority 2001, dated 2007)

These compounds were tested against T1, human CCR5 chemokine receptor (Homo sapiens, UniProt P51681) (assay: Inhibition of [125I]-RANTES binding to CCR5/CHO cells (CCR5 antagonistic activity)). Conditions: 40 min, test compound 1 μM, [125I]-RANTES as ligand, room temperature, read-out: Binding Inhibitory Ratio (%).
T1 construct: expressed in transfected cells
Method: Cloning of CCR5 gene from human spleen cDNA was conducted using the PCR method. Using spleen cDNA (0.5 ng) (TOYOBO CO., LTD, QUICK-Clone cDNA) as a template, PCR was performed in a DNA Thermal Cycler 480 (manufactured by Perkin Elmer) (reaction conditions: 30 cycles of 95° C. for 1 minute, 60° C. for 1 minute, and 75° C. for 5 minutes) by adding primer sets, SEQ. ID NO: 1 (sequence length: 34; sequence type: nucleic acid; chain number: single strand; topology: linear; kind of sequence: other nucleic acid synthetic. DNA) described in Experimental. Example (1) of WO 99/32100, and SEQ ID NO: 2 (sequence length: 34; sequence type: nucleic acid; chain number: single strand; topology: linear; kind of sequence: other nucleic acid synthetic. DNA) described in Experimental. Example (1) of WO 99/32100, (25 pmol, respectively), which were prepared referring to the nucleotide sequence of CCR5 gene, as reported by Samson et al. (Biochemistry 35 (11), 3362-3367 (1996)) and by using TaKaRa. EX Taq (Takara Shuzo). The resultant. PCR product was subjected to agarose gel electrophoresis to collect an approximately 1.0 kb. DNA fragment, which was subjected to an Original TA Cloning Kit (Funakoshi Co., Ltd.) to carry out cloning of CCR5 gene.
The plasmid obtained above was digested with restriction enzymes XbaI (Takara Shuzo Co., Ltd.) and BamHI (Takara Shuzo Co., Ltd.), and then subjected to agarose gel electrophoresis to collect DNA fragment of about 1.0 kb. The DNA fragment and plasmid pcDNA 3.1 (Funakoshi. Co., Ltd.) for expression in animal cells, which was previously digested with XbaI and BamHI, were mixed and ligated by DNA Ligation Kit Ver. 2 (Takara Shuzo Co., Ltd.). The resulting plasmid was subjected to transformation into. E. coli JM109 competent cells (Takara Shuzo Co., Ltd.) to obtain plasmid pCKR5.
CHO-K1 cells were cultured in a 750-ml tissue culture flask (Becton, Dickinson and Company.) using. Ham F12 medium (NIHON PHARMACEUTICAL CO., LTD.) containing 10% fetal bovine serum (Lifetech Oriental) and were collected using 0.5 g/L trypsin-0.2 g/L EDTA (Lifetech Oriental). The cells were washed with PBS (Lifetech Oriental), centrifuged (1000 rpm, 5 minutes), and suspended in PBS. The DNA was introduced into the cells using a Gene Pulser (Bio-Rad Laboratories, Inc.) under the following conditions. Namely, 8×10^6 cells and 10 μg of plasmid pCKR5 for expression of human CCR5 were placed in a cuvette having a 0.4-cm gap, and electroporation was carried out with a voltage 0.25 kV and 960 μF of capacitance. Then, the cells were transferred into Ham's. F12 medium containing 10% fetal bovine serum, and incubated for 24 hours. The cells were collected, centrifuged, and suspended in Ham' F12 medium containing 10% fetal bovine serum and Geneticin (Lifetech Oriental) at a concentration of 500 μg/ml. The suspension of cells was diluted to a concentration of 10^4 cells/ml, and was inoculated onto 96-well plate (Becton Dickinson), to obtain Geneticin-resistant strain.
Then, resulting. Geneticin-resistant strain were cultured on 96-well plate (Becton Dickinson), and CCR5-expressing cells were selected from the resistant cells. Namely, in an assay buffer, (Ham's F12 medium containing 0.5% BSA, and 20 mM HEPES (Wako Pure Chemical Ind., pH 7.2)) to which was added […][125I]-RANTES (Amersham) as a ligand, the cells were subjected to a binding reaction at room temperature for 40 minutes. Wells containing the cells were washed with ice-cooled PBS, and 50 μl/well of 1M NaOH was added and stirred. The cells to which the ligand was bound specifically, i.e., CCR5/CHO cells, were selected by measurement of radioactivity using a […].
The CCR5/CHO cells were inoculated onto 96-well microplate at a concentration of 5×10^4 cells/well, and were cultured for 24 hours. After removal of the medium by aspiration, to each well was added an assay buffer containing a test compound (1 μM), and [125I]/RANTES (Amersham) used as a ligand at a concentration of […]. […]

T1 sequence (P51681 whole entry): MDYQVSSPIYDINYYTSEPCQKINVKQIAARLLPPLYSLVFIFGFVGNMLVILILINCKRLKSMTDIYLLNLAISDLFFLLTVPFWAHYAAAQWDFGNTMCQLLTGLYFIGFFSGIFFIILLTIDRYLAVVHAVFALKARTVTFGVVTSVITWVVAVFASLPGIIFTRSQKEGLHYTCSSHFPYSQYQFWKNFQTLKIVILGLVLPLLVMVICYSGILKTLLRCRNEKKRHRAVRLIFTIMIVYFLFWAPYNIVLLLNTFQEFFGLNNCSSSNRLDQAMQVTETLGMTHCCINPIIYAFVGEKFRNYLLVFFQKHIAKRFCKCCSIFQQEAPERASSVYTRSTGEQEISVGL

Point of comparison: `CCCCOCCOc1ccc(-c2ccc3c(c2)C=C(C(=O)Nc2ccc([S+]([O-])Cc4cccnn4)cc2)CCN3CC(C)C)cc1` (stereo not drawn) [Compound 259, 7-[4-(2-butoxyethoxy)phenyl]-1-isobutyl-N-[4-[(3-pyridazinylmethyl)sulfinyl]phenyl]-2,3-dihydro-1-benzazepine-4-carboxamide], inhibition at 1 µM 88%. Against it:
- CCCCOCCOc1ccc(-c2ccc3c(c2)C=C(C(=O)Nc2ccc([S+]([O-])Cc4nccn4CCCC(N)=O)cc2)CCN3CC(C)C)cc1 (single isomer, unassigned; (-)) [Compound 418, (−)-N-[4-[[[1-(4-amino-4-oxobutyl)-1H-imidazol-2-yl]methyl]sulfinyl]phenyl]-7-[4-(2-butoxyethoxy)phenyl]-1-isobutyl-2,3-dihydro-1H-1-benzazepine-4-carboxamide] — higher, 92%
- CCCCOCCOc1ccc(-c2ccc3c(c2)C=C(C(=O)Nc2ccc(S(=O)(=O)Cc4nccn4CCCC(=O)NC)cc2)CCN3CC(C)C)cc1 [Compound 425, 7-[4-(2-butoxyethoxy)phenyl]-N-[4-[[[1-[4-(methylamino)-4-oxobutyl]-1H-imidazol-2-yl]methyl]sulfonyl]phenyl]-1-isobutyl-2,3-dihydro-1H-1-benzazepine-4-carboxamide] — higher, 100%
- CCCCOCCOc1ccc(-c2ccc3c(c2)C=C(C(=O)Nc2ccc([S+]([O-])Cc4nccn4CCOC(C)=O)cc2)CCN3CC(C)C)cc1 (stereo not drawn) [Compound 411, [2-[[[4-[[[7-[4-(2-butoxyethoxy)phenyl]-1-isobutyl-2,3-dihydro-1H-1-benzazepin-4-yl]carbonyl]amino]phenyl]sulfinyl]methyl]-1H-imidazol-1-yl]ethyl acetate] — higher, 100%
- CCCCOCCOc1ccc(-c2ccc3c(c2)C=C(C(=O)Nc2ccc(SCc4nncn4C)cc2)CCN3CC(C)C)cc1 [Compound 130, 7-[4-(2-butoxyethoxy)phenyl]-N-[4-(4-methyl-4H-1,2,4-triazol-3-ylmethylthio)phenyl]-1-isobutyl-2,3-dihydro-1H-1-benzazepine-4-carboxamide] — higher, 100%
- CCCCOCCOc1ccc(-c2ccc3c(c2)C=C(C(=O)Nc2ccc(OCc4nncn4CCC)cc2)CCN3CC(C)C)cc1 [Compound 26, 7-[4-(2-butoxyethoxy)phenyl]-1-isobutyl-N-[4-[(4-propyl-4H-1,2,4-triazol-3-yl)methoxy]phenyl]-2,3-dihydro-1H-1-benzazepine-4-carboxamide] — higher, 97%
- CCCCOCCOc1ccc(-c2ccc3c(c2)C=C(C(=O)Nc2ccc([S+]([O-])Cc4nccn4C4CC4)cc2)CCN3CC(C)C)cc1 (stereo not drawn) [Compound 367, 7-[4-(2-butoxyethoxy)phenyl]-N-[4-[[[1-cyclopropylimidazol-2-yl]methyl]sulfinyl]phenyl]-1-isobutyl-2,3-dihydro-1-benzazepine-4-carboxamide] — higher, 96%
- CCCCOCCOc1ccc(-c2ccc3c(c2)C=C(C(=O)Nc2ccc([S+]([O-])Cc4cncn4CCOC(C)=O)cc2)CCN3CC(C)C)cc1 (stereo not drawn) [Compound 427, [5-[[[4-[[[7-[4-(2-butoxyethoxy)phenyl]-1-isobutyl-2,3-dihydro-1H-1-benzazepin-4-yl]carbonyl]amino]phenyl]sulfinyl]methyl]-1H-imidazol-1-yl]ethyl acetate] — higher, 100%
- CCCCOCCOc1ccc(-c2ccc3c(c2)C=C(C(=O)Nc2ccc(CSc4nncn4C)cc2)CCN3CC(C)C)cc1 [Compound 117, 7-[4-(2-butoxyethoxy)phenyl]-N-[4-(4-methyl-4H-1,2,4-triazol-3-ylthiomethyl)phenyl]-1-isobutyl-2,3-dihydro-1H-1-benzazepine-4-carboxamide] — higher, 95%
- CCCCOCCOc1ccc(-c2ccc3c(c2)C=C(C(=O)Nc2ccc(C(O)c4cccc[n+]4[O-])c(C(F)(F)F)c2)CCN3CCC)cc1 (stereo not drawn) [Compound 13, 7-[4-(2-butoxyethoxy)phenyl]-N-[4-[hydroxy(1-oxidopyridin-2-yl)methyl]-3-trifluoromethylphenyl]-1-propyl-2,3-dihydro-1H-1-benzazepine-4-carboxamide] — higher, 100%
- CCCCOCCOc1ccc(-c2ccc3c(c2)C=C(C(=O)Nc2ccc([S+]([O-])Cc4cccnc4C)cc2)CCN3CC(C)C)cc1 (stereo not drawn) [Compound 251, 7-[4-(2-butoxyethoxy)phenyl]-1-isobutyl-N-[4-[[(2-methyl-3-pyridinyl)methyl]sulfinyl]phenyl]-2,3-dihydro-1-benzazepine-4-carboxamide] — higher, 99%
- CCCCOCCOc1ccc(-c2ccc3c(c2)C=C(C(=O)Nc2ccc([S+]([O-])Cc4nnnn4CC)cc2)CCN3CC(C)C)cc1 (stereo not drawn) [Compound 242, 7-[4-(2-butoxyethoxy)phenyl]-1-isobutyl-N-[4-[[(1-ethyl-tetrazol-5-yl)methyl]sulfinyl]phenyl]-2,3-dihydro-1-benzazepine-4-carboxamide] — higher, 94%
- CCCCOCCOc1ccc(-c2ccc3c(c2)C=C(C(=O)Nc2ccc([S+]([O-])CC4=NNCN4CCC)nn2)CCN3CC(C)C)cc1 (stereo not drawn) [Compound 68, 7-[4-(2-butoxyethoxy)phenyl]-1-isobutyl-N-[6-[(4-propyl-1H-1,2,4-triazol-3-yl)methylsulfinyl]pyridazin-3-yl]-2,3-dihydro-1H-1-benzazepine-4-carboxamide] — higher, 97%
- CCCCOCCOc1ccc(-c2ccc3c(c2)C=C(C(=O)Nc2ccc([S+]([O-])Cc4cccnc4)c(OC)c2)CCN3CC(C)C)cc1 (stereo not drawn) [Compound 240, 7-[4-(2-butoxyethoxy)phenyl]-1-isobutyl-N-[3-methoxy-4-[(3-pyridinylmethyl)sulfinyl]phenyl]-2,3-dihydro-1-benzazepine-4-carboxamide] — higher, 97%

Same assay, conditions: test compound 1 μM, [125I]-RANTES as ligand, room temperature, 40 minutes

Point of comparison: `CCCCOCCOc1ccc(-c2ccc3c(c2)C=C(C(=O)Nc2ccc([S+]([O-])Cc4cncn4CCC)cc2)CCN3CCC)cc1` (single isomer, unassigned; (-)) [Compound 378, (−)-7-[4-(2-butoxyethoxy)phenyl]-1-propyl-N-[4-[[[1-propylimidazol-5-yl]methyl]sulfinyl]phenyl]-2,3-dihydro-1-benzazepine-4-carboxamide], “Binding Inhibitory Ratio (%)” value 87%. Against it:
- CCCCOCCOc1ccc(-c2ccc3c(c2)C=C(C(=O)Nc2ccc([S+]([O-])Cc4nccn4CCCO)cc2)CCN3CC(C)C)cc1 (stereo not drawn) [Compound 437] — higher, 100%
- C#CCn1cncc1C[S+]([O-])c1ccc(NC(=O)C2=Cc3cc(-c4ccc(OCCOCCCC)cc4)ccc3N(CC(C)C)CC2)cc1 (stereo not drawn) [Compound 443, 7-[4-(2-butoxyethoxy)phenyl]-1-isobutyl-N-[4-[[(1-(2-propin-1-yl)imidazol-5-yl)methyl]sulfinyl]phenyl]-2,3-dihydro-1H-1-benzazepine-4-carboxamide] — higher, 100%
- CCCCOCCOc1ccc(-c2ccc3c(c2)C=C(C(=O)Nc2ccc([S+]([O-])Cc4cncn4CCC)cc2)CCN3CC(C)C)cc1 (single isomer, unassigned; (-)) [Compound 373, (−)-7-[4-(2-butoxyethoxy)phenyl]-1-isobutyl-N-[4-[[[1-propylimidazol-5-yl]methyl]sulfinyl]phenyl]-2,3-dihydro-1-benzazepine-4-carboxamide] — higher, 94%
